# Measured values taken from patent publication US10844027B2, “Carboxylic diarylthiazepineamines as mu-opioid receptor agonists” (THE TRUSTEES OF COLUMBIA UNIVERSITY IN THE CITY OF NEW YORK, priority 2015, dated 2020).
# Counter-ions that a name gives are not always drawn.
# Key:
# [1] = target: T1, human mu-opioid receptor (MOR) (Homo sapiens, UniProt P35372); assay: BRET assay measuring G protein activation, agonist activity at human MOR; format: cell-based
# T1 construct: expressed in transfected cells; host or cells: HEK-293T
# Experimental: After 24 hours the media was changed, and the experiment was performed 24 hours later (48 hours after transfection).
# Transfected cells were dissociated and re-suspended in phosphate-buffered saline (PBS). […] The microplate was centrifuged and the cells were re-suspended in PBS. Then 5 μM of the luciferase substrate coelenterazine H was added to each well for 5 minutes. Following coelenterazine H addition, ligands were added and the BRET signal was measured at 5 minutes on a PHERAstar FS plate reader. Quantification of the BRET signal required calculating the ratio of the light emitted by the energy acceptor, mVenus (510-540 nm), over the light emitted by the energy donor, RLuc8 (485 nm). […] Dose response curves were fit using a three-parameter logistics equation in GraphPad Prism 6.
# [2] = target: T2, human delta-opioid receptor (DOR) (Homo sapiens, UniProt P41143); assay: BRET assay measuring G protein activation, agonist activity at human DOR; format: cell-based
# T2 construct: expressed in transfected cells; host or cells: HEK-293T
# Experimental: The diarylthiazepinamine esters (6) and carboxylic acids (7) were tested for agonist activity at the human mu-opioid receptor (MOR) and delta-opioid receptor (DOR) using bioluminescence resonance energy transfer (BRET) assays measuring G protein activation as previously described (Table 1) (Rives, M.-L. et al. 2012; Negri, A. et al. 2013).
# Human MOR or DOR cDNA was transfected alongside GαoB with RLuc8 inserted at position 91 (GαoB—RLuc8), Gβ1 (β1), and Gγ2 fused to the full-length mVenus at its N terminus (mVenus-γ2) into HEK-293T cells (5×10^6 cells/plate) in 10-cm dishes using PEI (Polysciences Inc.; Warrington, Pa.) in a 1:1 ratio diluted in Opti-MEM (Life Technologies Corp.; Grand Island, N.Y.) to assay for G protein activation as described previously (Rives, M.-L. et al. 2012; Negri, A. et al. 2013). Cells were maintained in Dulbecco's Modified Eagle Medium (high glucose #11965; Life Technologies) supplemented with 10% FBS (Premium Select, Atlanta Biologicals; Atlanta, Ga.) and 100 U/mL penicillin and 100 μg/mL streptomycin (#15140, Life Technologies). After 24 hours the media was changed, and the experiment was performed 24 hours later (48 hours after transfection).
# Transfected cells were dissociated and re-suspended in phosphate-buffered saline (PBS). Approximately 200,000 cells/well were added to a black-framed, white well 96-well plate (#60050; Perkin Elmer; Waltham, Mass.). The microplate was centrifuged and the cells were re-suspended in PBS. Then 5 μM of the luciferase substrate coelenterazine H was added to each well for 5 minutes. Following coelenterazine H addition, ligands were added and the BRET signal was measured at 5 minutes on a PHERAstar FS plate reader. Quantification of the BRET signal required calculating the ratio of the light emitted by the energy acceptor, mVenus (510-540 nm), over the light emitted by the energy donor, RLuc8 (485 nm). […] Dose response curves were fit using a three-parameter logistics equation in GraphPad Prism 6.
# [3] = Brain pharmacokinetics of tianeptine and its 5-carbon metabolite (7i) in mice
# Experimental: Brain samples were collected from three mice at 0.08, 0.25, 0.5, 1, 2, 4, 8 and 24 h, homogenized using ice-cold phosphate buffer saline (pH 7.4), and stored below −70° C. until analysis. Total homogenate volume was three times the tissue weight. All samples were processed for analysis by protein precipitation using acetonitrile (ACN) and analyzed with a fit-for-purpose LC/MS/MS method (LLOQ—1.01 ng/mL in brain). Pharmacokinetic parameters were calculated using the non-compartmental analysis tool of Phoenix WinNonlin® (Version 6.3).
# [4] = brain, C57BL/6 mice, single injection (30 mg/kg, i.p.) of tianeptine
# [5] = brain, mice, after tianeptine 30 mg/kg i.p.
# [6] = male, C57BL/6, mouse, in vivo, ip, 30 mg/kg
# T1 sequence (P35372 whole entry): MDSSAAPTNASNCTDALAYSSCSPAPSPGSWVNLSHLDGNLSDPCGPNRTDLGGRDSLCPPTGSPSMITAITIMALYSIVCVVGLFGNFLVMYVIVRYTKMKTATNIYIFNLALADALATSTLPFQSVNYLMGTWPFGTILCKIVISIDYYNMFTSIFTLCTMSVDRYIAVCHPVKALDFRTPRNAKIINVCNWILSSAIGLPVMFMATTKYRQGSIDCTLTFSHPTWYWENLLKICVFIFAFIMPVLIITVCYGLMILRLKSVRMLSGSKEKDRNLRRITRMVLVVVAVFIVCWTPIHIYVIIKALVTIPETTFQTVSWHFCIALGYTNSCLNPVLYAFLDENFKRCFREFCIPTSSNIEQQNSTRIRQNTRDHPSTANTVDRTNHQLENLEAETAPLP
# T2 sequence (P41143 whole entry): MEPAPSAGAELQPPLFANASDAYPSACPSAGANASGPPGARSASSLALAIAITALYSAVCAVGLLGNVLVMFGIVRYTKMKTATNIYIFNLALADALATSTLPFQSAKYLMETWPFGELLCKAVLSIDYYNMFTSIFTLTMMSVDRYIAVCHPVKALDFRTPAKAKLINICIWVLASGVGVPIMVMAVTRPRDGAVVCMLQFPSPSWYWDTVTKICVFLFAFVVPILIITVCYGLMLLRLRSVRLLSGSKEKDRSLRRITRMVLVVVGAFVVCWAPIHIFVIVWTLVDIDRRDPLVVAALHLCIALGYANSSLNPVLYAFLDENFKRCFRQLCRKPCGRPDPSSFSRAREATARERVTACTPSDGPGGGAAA
Structure (SMILES),EC50 [1] [µM],EC50 [2] [µM],also measured
"CCOC(=O)CCNC1c2ccccc2N(C)S(=O)(=O)c2cc(Br)ccc21 (stereo not shown) [Compound 6a, Ethyl 3-((3-bromo-6-methyl-5,5-dioxido-6,11l-dihydrodibenzo[c,f][1,2]thiazepin-11-yl)amino)propanoate]",5.9 ± 1,> 10,–
"CCOC(=O)CCNC1c2ccccc2N(C)S(=O)(=O)c2cc(I)ccc21 (stereo not shown) [Compound 6b, Ethyl 3-((3-iodo-6-methyl-5,5-dioxido-6,11-dihydrodibenzo[c,f][1,2]thiazepin-11-yl)amino)propanoate]",1.6 ± 0.2,> 10,–
"CCOC(=O)CCCNC1c2ccccc2N(C)S(=O)(=O)c2cc(Br)ccc21 (stereo not shown) [Compound 6c, Ethyl 4-((3-bromo-6-methyl-5,5-dioxido-6,11-dihydrodibenzo[c,f][1,2]thiazepin-11-yl)amino)butanoate]",0.27 ± 0.038,> 10,–
"CCOC(=O)CCCCNC1c2ccccc2N(C)S(=O)(=O)c2cc(Br)ccc21 (stereo not shown) [Compound 6d, Ethyl 5-((3-bromo-6-methyl-5,5-dioxido-6,11-dihydrodibenzo[c,f][1,2]thiazepin-11-yl)amino)pentanoate]",0.12,–,–
"CCOC(=O)CCCCNC1c2ccccc2N(C)S(=O)(=O)c2cc(I)ccc21 (stereo not shown) [Compound 6e, Ethyl 5-((3-iodo-6-methyl-5,5-dioxido-6,11-dihydrodibenzo[c,f][1,2]thiazepin-11-yl)amino)pentanoate]",0.0282 ± 0.0032,6.8 ± 0.03,–
"CCOC(=O)CCCCCNC1c2ccccc2N(C)S(=O)(=O)c2cc(Br)ccc21 (stereo not shown) [Compound 6f, Ethyl 6-((3-bromo-6-methyl-5,5-dioxido-6,11-dihydrodibenzo[c,f][1,2]thiazepin-11-yl)amino)hexanoate]",0.0908 ± 0.0314,11.7 ± 0.06,–
"CCOC(=O)CCCCCNC1c2ccccc2N(C)S(=O)(=O)c2cc(I)ccc21 (stereo not shown) [Compound 6g, Ethyl 6-((3-iodo-6-methyl-5,5-dioxido-6,11l-dihydrodibenzo[c,f][1,2]thiazepin-11-yl)amino)hexanoate]",0.0485 ± 0.0049,8.5 ± 6.3,–
"CCOC(=O)CCCCNC1c2ccccc2N(C)S(=O)(=O)c2cc(Cl)ccc21 (stereo not shown) [Compound 6i, Ethyl 5-((3-chloro-6-methyl-5,5-dioxido-6,11-dihydrodibenzo[c,f][1,2]thiazepin-11-yl)amino)pentanoate]",0.533 ± 0.267,> 10,–
"CCOC(=O)CCCCCNC1c2ccccc2N(C)S(=O)(=O)c2cc(Cl)ccc21 (stereo not shown) [Compound 6j, Ethyl 6-((3-chloro-6-methyl-5,5-dioxido-6,11-dihydrodibenzo[c,f][1,2]thiazepin-11-yl)amino)hexanoate]",0.318 ± 0.162,13.9 ± 4.8,–
"CN1c2ccccc2C(NCCC(=O)O)c2ccc(Br)cc2S1(=O)=O (stereo not shown) [Compound 7a, 3-((3-Bromo-6-methyl-5,5-dioxido-6,1-dihydrodibenzo[c,f][1,2]thiazepin-11-yl)amino)propanoic acid hydrochloride salt]",4.7 ± 1.4,> 10,–
"CN1c2ccccc2C(NCCC(=O)O)c2ccc(I)cc2S1(=O)=O (stereo not shown) [Compound 7b, 3-((3-Iodo-6-methyl-5,5-dioxido-6,11-dihydrodibenzo[c,f][1,2]thiazepin-11-yl)amino) propanoic acid hydrochloride salt]",1.2 ± 0.3,> 10,–
"CN1c2ccccc2C(NCCCC(=O)O)c2ccc(Br)cc2S1(=O)=O (stereo not shown) [Compound 7c, 4-((3-Bromo-6-methyl-5,5-dioxido-6,11-dihydrodibenzo[c,f][1,2]thiazepin-11-yl)amino)butanoic acid hydrochloride salt]",2 ± 0.3,> 10,–
"CN1c2ccccc2C(NCCCCC(=O)O)c2ccc(Br)cc2S1(=O)=O (stereo not shown) [Compound 7d, 5-((3-Bromo-6-methyl-5,5-dioxido-6,11-dihydrodibenzo[c,f][1,2]thiazepin-11-yl)amino)pentanoic acid hydrochloride salt]",0.405,> 10,–
"CN1c2ccccc2C(NCCCCC(=O)O)c2ccc(I)cc2S1(=O)=O (stereo not shown) [Compound 7e, 5-((3-Iodo-6-methyl-5,5-dioxido-6,11-dihydrodibenzo[c,f][1,2]thiazepin-11-yl)amino)pentanoic acid hydrochloride salt]",0.0183 ± 0.0002,8.9 ± 0.007,–
"CN1c2ccccc2C(NCCCCCC(=O)O)c2ccc(Br)cc2S1(=O)=O (stereo not shown) [Compound 7f, 6-((3-Bromo-6-methyl-5,5-dioxido-6,11-dihydrodibenzo[c,f][1,2]thiazepin-11-yl)amino)hexanoic acid hydrochloride salt]",0.133 ± 0.0132,23.7 ± 1.5,–
"CN1c2ccccc2C(NCCCCCC(=O)O)c2ccc(I)cc2S1(=O)=O (stereo not shown) [Compound 7g, 6-((3-Iodo-6-methyl-5,5-dioxido-6,11-dihydrodibenzo[c,f][1,2]thiazepin-11-yl)amino)hexanoic acid hydrochloride salt]",0.0243 ± 0.0045,5.1 ± 1.4,–
"CN1c2ccccc2C(NCCC(=O)O)c2ccc(Cl)cc2S1(=O)=O (stereo not shown) [Compound 7h, 3-((3-Chloro-6-methyl-5,5-dioxido-6,11-dihydrodibenzo[c,f][1,2]thiazepin-11-yl)amino)propanoic acid hydrochloride salt]",24.9 ± 12.6,> 10,–
"CN1c2ccccc2C(NCCCCC(=O)O)c2ccc(Cl)cc2S1(=O)=O.Cl (stereo not shown) [Compound 7i, 5-((3-Chloro-6-methyl-5,5-dioxido-6,11-dihydrodibenzo[c,f][1,2]thiazepin-11-yl)amino)pentanoic acid hydrochloride salt]",0.361 ± 0.0929,> 10,"AUClast [3, 4]: 5963 ng·h/g; CL [3, 4]: 78 mL/min/kg; brain exposure (as measured by AUC) compared to the parent compound (tianeptine) [3, 5]: greater; half-life compared to the parent compound (tianeptine) [3, 5]: significantly longer; Cmax [3, 6]: 2860 ng/g; Tmax [3, 6]: 0.5 h; half-life [3, 6]: 2.33 h"
"CN1c2ccccc2C(NCCCCCCC(=O)O)c2ccc(Cl)cc2S1(=O)=O (stereo not shown) [Tianeptine, tianeptine, reference compound]",–,37.4 ± 11.2,–
